# In PMC9526870 (iScience, 2022):
# System: SARS-CoV-2
# Format: cell-based
smiles,measurement,value
CCC(CC)COC(=O)[C@H](C)N[P@](=O)(OC[C@H]1O[C@@](C#N)(c2ccc3c(N)ncnn23)[C@H](O)[C@@H]1O)Oc1ccccc1 [remdesivir],SARS-CoV-2 fluorescence signal in host cells (in words),depletion of the SARS-CoV-2 fluorescence signal
